Here are results for 18 molecules from patent US20250281424A1 (New York Blood Center, Inc, priority 2020, published 2025).

The target of the test is T1, human PF4 (Homo sapiens, UniProt P02776).
T1 construct: PF4 is a 70 amino acid, lysine-rich 7.8 kDa platelet-specific protein; made in house; host or cells: Escherichia coli BL21DE3 pLysS (pT7-7) and/or Drosophila S2 cells
T1 sequence (P02776 32-101): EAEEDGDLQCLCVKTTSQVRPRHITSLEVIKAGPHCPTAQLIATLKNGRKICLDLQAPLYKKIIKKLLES
Description: Inhibition of PF4 tetramer formation (BS3 cross-linking, SDS-PAGE). The note with it: for inhibition at 5 µM: 5 μM inhibitor; for inhibition at 10 µM: 10 μM inhibitor (column A); for IC50: read-out: IC50 of PF4 tetramer formation inhibition; for inhibition at 30 µM: 30 μM inhibitor. The format is biochemical. How it is done: Compounds of Examples 1-38, 65-301, 303, 305, 307, 309, 311, 313, 314, 316, and 318-404 were tested using SDS PAGE analysis of BS3 crosslinked PF4 for their ability to prevent PF4 tetramer formation. […] See, Suvarna et al., Throm. Res, 122:211-220 (2008), which is hereby incorporated by reference, at least for a detailed description of this technique.
cDNA encoding human PF4 was cloned into the plasmid μMT/BiPN5-His A (Invitrogen Corp., Carlsbad CA) for expression in the Drosophila Expression System (Invitrogen, Carlsbad, CA). Cloning was performed using Bg1 II and Age I cloning sites. A hexanucleotide encoding Bg1 II site was then eliminated by site-directed mutagenesis so that the expressed protein contained full-length wild type (wt) PF4 or PF4^K50E with an identical sequence as their counterparts expressed in E. coli. See, method described in Sachais et al (Sachais, B. S. et al. (2012). Blood 119(25): 5955-5961). PF4 expression was induced by adding copper sulfate (0.5 mM). The induced S2 cells were incubated in serumfree Insect-Xpress™ media (Lonza, Walkersville, MD) for 3-5 days; supernatants were collected, sodium azide (0.02% final concentration) and EDTA (2.5 mM final concentration) were added, and the media were filtered through an Express® PLUS 0.22 μm filter (Millipore Corp., Billerica, MA).
Wild-type (WT) human PF4 in the pT7-7 vector (Novagen, Madison, WI) was expressed in the Escherichia coli strain BL21DE30 pLysS (Stratagene, La Jolla, CA), and purified and characterized as described by Rauova et al. (Rauova, L. et al. (2006). Blood 107(6): 2346-2353) and Park et al., (Blood, 75:1290-1295 (1990)), which are hereby incorporated by reference. Briefly, recombinant protein was isolated from the supernatant of the bacterial lysate by affinity chromatography using a HiTrap high-performance (HP) affinity column. WT PF4 was purified from the media on a heparin HiTrap® column on an ÄTKAPrime™ system (GE Healthcare) at 4° C. in Tris (10 mM), EDTA (1 mM), and pH 8 buffer. Media was loaded in buffer containing NaCl (0.5 M) and PF4 was eluted at 1.8 M NaCl using a linear gradient. Fractions containing purified PF4 as detected by silver staining of 12% NuPAGE Bis-Tris gels (Invitrogen) were pooled, concentrated and buffer exchanged into 50 mM HEPES, 0.5 M NaCl, pH—7.2 using an Amicon® Ultra centrifugal filter (3K NMWL, Millipore Corp). Protein was quantified using a BCA assay.
Compounds of Examples 1-38, 65-196, and 209-228 were then tested for their ability to inhibit PF4 tetramer formation using a cross-linking assay as described in Rauova cited above. Specifically, hPF4 (10 μg/ml) in phosphate-buffered saline (PBS) was incubated at 37° C. for 15 min in the absence of the antagonistic compounds (control sample) and presence of compounds. Cross-linking and SDS-PAGE analysis were then performed as described in “Analysis of PF4 multimerization” of Rauova. The relative amounts of PF4 in each of the monomer, dimer, trimer and tetramer form were calculated by analyzing the samples on a 12% SDS-polyacrylamide gel under reducing conditions. Bands were quantified using the Kodak ID Image Analysis system (Kodak, Rochester, NY). The SigmaMarker™ reagent served as the molecular weight standard. Data was compiled and bar graphed as % PF4 for the tetramer, trimer, dimer, and monomer as a function of concentration for the test and control samples.
This experiment was performed in a manner similar to experiment 1, but PF4 (10 μg/ml) in PBS was independently incubated with compounds of Examples 1-38, 65-196, and 209-228 for 60 min at room temperature, followed by the addition of cross-linking reagent bis(sulfosuccinimidyl)suberate (0.2 mM) for 30 min at room temperature. The reaction was stopped by adding NuPAGE® lithium dodecyl sulfate (LDS) sample buffer, and denatured by heating to 70° C. for 10 min according to the manufacturer's instructions. […]

[1] abbreviates: read-out: % inhibition of PF4 tetramer formation at single concentration of inhibitor.

SMILES strings stand for the structures.

As a reminder, the IC50 is the concentration that inhibits the measured activity by half.

Take `CC(C)(C)OC(=O)N1CCC[C@H]1CC(=O)C1C(=O)c2ccc(C(=O)c3ccc4c(c3)C(=O)C(C(=O)C[C@@H]3CCCN3C(=O)OC(C)(C)C)C4=O)cc2C1=O` (stereo in doubt) [Example 112, tert-butyl (2S)-2-{2-[5-(2-{2-[(2S)-1-[(tert-butoxy)carbonyl]pyrrolidin-2-yl]acetyl}-1,3-dioxo-2,3-dihydro-1H-indene-5-carbonyl)-1,3-dioxo-2,3-dihydro-1H-inden-2-yl]-2-oxoethyl}pyrrolidine-1-carboxylate]: the IC50 came out at 1200 nM. Under setting [1], the inhibition at 5 µM worked out at 84% and the inhibition at 10 µM is 89%.
Regarding `O=C(c1ccc2c(c1)C(=O)C(C(=O)[C@@H]1C[C@H]1C(=O)O)C2=O)c1ccc2c(c1)C(=O)C(C(=O)[C@@H]1C[C@H]1C(=O)O)C2=O` (stereo in doubt) [Example 222, (1R,2R)-2-(5-{2-[(1R,2R)-2-carboxycyclopropanecarbonyl]-1,3-dioxo-2,3-dihydro-1H-indene-5-carbonyl}-1,3-dioxo-2,3-dihydro-1H-indene-2-carbonyl)cyclopropane-1-carboxylic acid], the IC50 was found to be 1400 nM. Under setting [1], the inhibition at 5 µM worked out at 94% and the inhibition at 10 µM stood at 97%.
For the molecule `O=C1c2ccc(S(=O)(=O)c3ccc4c(c3)C(=O)C(C(=O)[C@@H]3C[C@H]3C(=O)O)C4=O)cc2C(=O)C1C(=O)[C@@H]1C[C@H]1C(=O)O` (stereo in doubt) [Example 223, (1R,2R)-2-[5-({2-[(1R,2R)-2-carboxycyclopropanecarbonyl]-1,3-dioxo-2,3-dihydro-1H-inden-5-yl}sulfonyl)-1,3-dioxo-2,3-dihydro-1H-indene-2-carbonyl]cyclopropane-1-carboxylic acid], the half-maximal inhibitory concentration (IC50) came to 1400 nM. In addition, under setting [1], the inhibition at 5 µM was 97% and the inhibition at 10 µM turned out to be 100%.
On to `COC(=O)[C@H]1CCCCC1C(=O)C1C(=O)c2ccc(C(=O)c3ccc4c(c3)C(=O)C(C(=O)C3CCCC[C@@H]3C(=O)OC)C4=O)cc2C1=O` (stereo in doubt) [Example 256, methyl (1S)-2-(5-{2-[(2S)-2-(methoxycarbonyl)cyclohexanecarbonyl]-1,3-dioxo-2,3-dihydro-1H-indene-5-carbonyl}-1,3-dioxo-2,3-dihydro-1H-indene-2-carbonyl)cyclohexane-1-carboxylate], for which, under “1 μM inhibitor, read-out: % inhibition of PF4 tetramer formation at single concentration of inhibitor”, the inhibition at 1 µM worked out at 13%. For the same molecule, the inhibition at 3 µM (3 μM inhibitor (column A), read-out: % inhibition of PF4 tetramer formation at single concentration of inhibitor) came out at 32%.
With `CC(=O)C1C(=O)c2ccc(S(=O)(=O)c3ccc4c(c3)C(=O)C(C(C)=O)C4=O)cc2C1=O` (centres unmarked) [Example 2, 5,5′-sulfonylbis(2-acetyl-1h-indene-1,3(2h)-dione)], the IC50 was found to be 18000 nM.
Consider `CCOC(=O)C1(C(C)=O)C(=O)c2ccc(Oc3ccc4c(c3)C(=O)CC4=O)cc2C1=O` (centres unmarked) [Example 6, 2-acetyl-5-(1,3-dioxo-indan-5-yloxy)-1,3-dioxo-indan-2-carboxylic acid ethyl ester], for which the IC50 was determined as 1050 nM.
Turning to `O=C1CC(=O)c2cc(Oc3ccc4c(c3)C(=O)CC4=O)ccc21` [Example 7, 5-(2,3-dihydro-1,3dioxo-1h-inden-6-yloxy)-2,3-dihydro-1,3-dioxo-1h-indene], the IC50 is 1120 nM.
With `CC(=O)C1(C(=O)OC(C)C)C(=O)c2ccc(Oc3ccc4c(c3)C(=O)CC4=O)cc2C1=O` (centres unmarked) [Example 8, ethyl 2-acetyl-5-(1,3-dioxo-indan-5-yloxy)-1,3-dioxo-indan-2-carboxylic acid isopropyl ester], the IC50 is 3400 nM.
As for `CC(=O)C1C(=O)c2ccc(Oc3ccc4c(c3)C(=O)C(C(C)=O)C4=O)cc2C1=O` (centres unmarked) [Example 9, 5-(2-acetyl-2,3-dihydro-1,3-dioxo-1h-inden-6-yloxy)-2-acetyl-2,3-dihydro-1,3-dioxo-1h-indene], the IC50 amounted to 52000 nM.
Still for that read-out and setting: next, `CC(=O)C1C(=O)c2ccc(-c3ccc4c(c3)C(=O)C(C(C)=O)C4=O)cc2C1=O` (centres unmarked) [Example 10, 2-acetyl-5-(2-acetyl-2,3-dihydro-1,3dioxo-1h-inden-5-yl)-2,3-dihydro-1,3-dioxo-1h-indene]: 1350 nM; `O=C1CC(=O)c2cc(S(=O)(=O)c3ccc4c(c3)C(=O)CC4=O)ccc21` [Example 12, 5,5′-sulfonylbis(1h-indene-1,3(2h)-dione)]: 2320 nM.
As for `O=C1CC(=O)c2cc(C(c3ccc4c(c3)C(=O)CC4=O)(C(F)(F)F)C(F)(F)F)ccc21` [Example 13, 5-(2,2,2-trifluoro-1-(5-indan-1,3-dionyl)-1-trifluoromethyl-ethyl)-indan-1,3-dione], under setting [1], the inhibition at 5 µM came to 16% and the inhibition at 10 µM is 74%.
Take `O=C(c1ccc2c(c1)C(=O)C(C(=O)Nc1ccccc1)C2=O)c1ccc2c(c1)C(=O)C(C(=O)Nc1ccccc1)C2=O` (centres unmarked) [Example 14, 5,5′-carbonylbis(1,3-dioxo-indan-2-carboxylic acid phenylamide)]: the IC50 came to 1000 nM. Further, the inhibition at 30 µM under setting [1] is 96%.
As to `CCOC(=O)NC(=O)C1C(=O)c2ccc(C(=O)c3ccc4c(c3)C(=O)C(C(=O)NC(=O)OCC)C4=O)cc2C1=O` (centres unmarked) [Example 16, 5,5′-carbonylbis((1,3-dioxo-indane-2-carbonyl)-carbamic acid ethyl ester)], the IC50 came out at 20000 nM. Also, under setting [1], the inhibition at 30 µM is 78%.
On to `O=C(c1ccc2c(c1)C(=O)C(C(=O)Nc1cc(Cl)nc(Cl)c1)C2=O)c1ccc2c(c1)C(=O)C(C(=O)Nc1cc(Cl)nc(Cl)c1)C2=O` (centres unmarked) [Example 17, 5,5′-carbonylbis(1,3-dioxo-indan-2-carboxylic acid (2,6-dichloro-pyridin-4-yl)-amide)], for which the IC50 was 1080 nM.
For the molecule `O=C(c1ccc2c(c1)C(=O)C(C(=O)NCc1ccco1)C2=O)c1ccc2c(c1)C(=O)C(C(=O)NCc1ccco1)C2=O` (centres unmarked) [Example 19, 5,5′-carbonylbis(1,3-dioxo-indan-2-carboxylic acid (furan-2-ylmethyl)-amide)], under setting [1], the inhibition at 5 µM was 29% and the inhibition at 10 µM came to 56%.
In the same order, the values of `O=C(c1ccc2c(c1)C(=O)C(C(=O)NC1CC1)C2=O)c1ccc2c(c1)C(=O)C(C(=O)NC1CC1)C2=O` (centres unmarked) [Example 21, 5,5′-carbonylbis(1,3-dioxo-indan-2-carboxylic acid (cyclopropyl)-amide)] are 27% and 46%.
Turning to `COc1cccc(NC(=O)C2C(=O)c3ccc(C(=O)c4ccc5c(c4)C(=O)C(C(=O)Nc4cccc(OC)c4)C5=O)cc3C2=O)c1` (centres unmarked) [Example 23, 5,5′-carbonylbis(1,3-dioxo-indan-2-carboxylic acid (3-methoxyphenyl)-amide)], the IC50 was found to be 1750 nM. Moreover, under setting [1], the inhibition at 5 µM amounted to 84% and the inhibition at 10 µM is 92%.
